From ChEMBL document CHEMBL1128795, “N-(Quinuclidin-3-yl)-2-(1-methyl-1H-indol-3-yl)-2-oxo-acetamide: a high affinity 5-HT3 receptor partial agonist” (Bioorg Med Chem Lett, 1995) come the findings set out here.

A value given as a limit tells only on which side of the number the result lay.

The target in test [1] is 5-hydroxytryptamine receptor 2A (Homo sapiens, UniProt P28223). The test can be described thus: Binding affinity against 5-Hydroxytryptamine 2A receptor.
Test [2] deals with T1, Serotonin 3 (5-HT3) receptor (Rattus norvegicus, UniProt P35563+Q9JJ16).
T1 sequence (P35563 whole entry): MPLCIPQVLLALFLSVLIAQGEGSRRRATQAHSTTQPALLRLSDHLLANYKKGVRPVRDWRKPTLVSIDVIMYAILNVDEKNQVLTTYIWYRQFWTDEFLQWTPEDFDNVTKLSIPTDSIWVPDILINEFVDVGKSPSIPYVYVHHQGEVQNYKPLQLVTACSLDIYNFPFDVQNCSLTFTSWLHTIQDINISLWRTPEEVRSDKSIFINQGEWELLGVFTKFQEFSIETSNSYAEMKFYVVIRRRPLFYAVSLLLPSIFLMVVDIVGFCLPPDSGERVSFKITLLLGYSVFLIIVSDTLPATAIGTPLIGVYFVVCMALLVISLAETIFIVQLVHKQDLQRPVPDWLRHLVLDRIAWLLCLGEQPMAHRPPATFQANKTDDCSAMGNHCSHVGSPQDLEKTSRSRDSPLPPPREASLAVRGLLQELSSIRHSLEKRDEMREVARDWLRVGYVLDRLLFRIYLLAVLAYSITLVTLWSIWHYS
T1 sequence (Q9JJ16 whole entry): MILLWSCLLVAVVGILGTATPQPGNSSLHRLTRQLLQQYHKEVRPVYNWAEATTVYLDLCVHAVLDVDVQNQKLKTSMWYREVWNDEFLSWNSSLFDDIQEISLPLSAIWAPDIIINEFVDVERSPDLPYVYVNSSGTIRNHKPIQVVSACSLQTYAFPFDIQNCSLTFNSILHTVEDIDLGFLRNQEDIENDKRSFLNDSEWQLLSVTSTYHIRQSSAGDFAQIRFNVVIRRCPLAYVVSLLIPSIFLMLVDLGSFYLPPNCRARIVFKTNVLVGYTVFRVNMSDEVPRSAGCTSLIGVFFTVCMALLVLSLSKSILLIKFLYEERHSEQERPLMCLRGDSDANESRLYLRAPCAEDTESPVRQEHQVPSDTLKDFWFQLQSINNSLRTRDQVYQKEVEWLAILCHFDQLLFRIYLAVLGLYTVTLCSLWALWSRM
Description: Binding affinity against 5-Hydroxytryptamine 3 receptor. It is filed as protein-complex assay.

Test [3] addresses T2, 5-hydroxytryptamine receptor 2C (Homo sapiens, UniProt P28335).
T2 sequence (P28335 whole entry): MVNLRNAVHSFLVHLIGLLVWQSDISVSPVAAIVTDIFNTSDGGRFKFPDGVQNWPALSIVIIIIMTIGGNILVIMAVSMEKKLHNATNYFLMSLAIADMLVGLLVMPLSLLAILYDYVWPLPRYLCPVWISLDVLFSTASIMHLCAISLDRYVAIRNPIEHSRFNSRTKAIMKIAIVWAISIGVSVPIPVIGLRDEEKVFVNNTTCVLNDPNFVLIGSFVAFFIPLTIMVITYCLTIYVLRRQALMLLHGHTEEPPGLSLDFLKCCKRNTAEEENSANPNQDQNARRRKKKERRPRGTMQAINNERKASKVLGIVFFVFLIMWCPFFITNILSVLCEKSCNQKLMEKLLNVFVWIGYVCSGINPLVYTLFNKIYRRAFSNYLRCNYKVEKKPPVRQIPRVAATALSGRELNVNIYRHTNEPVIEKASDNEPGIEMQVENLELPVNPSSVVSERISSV
The test can be described thus: Binding affinity against 5-hydroxytryptamine 2C receptor.

Test [4] addresses T3, Alpha-2A adrenergic receptor (Homo sapiens, UniProt P08913).
T3 sequence (P08913 whole entry): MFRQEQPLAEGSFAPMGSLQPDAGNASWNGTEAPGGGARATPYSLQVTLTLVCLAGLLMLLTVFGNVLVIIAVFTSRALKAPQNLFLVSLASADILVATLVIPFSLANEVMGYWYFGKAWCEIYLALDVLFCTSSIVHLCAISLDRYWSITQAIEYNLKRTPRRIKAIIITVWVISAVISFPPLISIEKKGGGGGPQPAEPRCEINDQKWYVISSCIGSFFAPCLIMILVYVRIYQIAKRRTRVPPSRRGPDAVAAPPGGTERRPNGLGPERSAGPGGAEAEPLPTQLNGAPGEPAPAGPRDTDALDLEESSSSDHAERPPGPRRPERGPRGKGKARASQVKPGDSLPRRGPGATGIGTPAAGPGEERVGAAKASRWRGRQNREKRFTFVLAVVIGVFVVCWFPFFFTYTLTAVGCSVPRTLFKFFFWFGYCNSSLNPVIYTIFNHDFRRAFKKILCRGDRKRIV
Description: Binding affinity against Alpha-2A adrenergic receptor.

Test [5] concerns the target T4, Alpha-1B adrenergic receptor (Homo sapiens, UniProt P35368).
T4 sequence (P35368 whole entry): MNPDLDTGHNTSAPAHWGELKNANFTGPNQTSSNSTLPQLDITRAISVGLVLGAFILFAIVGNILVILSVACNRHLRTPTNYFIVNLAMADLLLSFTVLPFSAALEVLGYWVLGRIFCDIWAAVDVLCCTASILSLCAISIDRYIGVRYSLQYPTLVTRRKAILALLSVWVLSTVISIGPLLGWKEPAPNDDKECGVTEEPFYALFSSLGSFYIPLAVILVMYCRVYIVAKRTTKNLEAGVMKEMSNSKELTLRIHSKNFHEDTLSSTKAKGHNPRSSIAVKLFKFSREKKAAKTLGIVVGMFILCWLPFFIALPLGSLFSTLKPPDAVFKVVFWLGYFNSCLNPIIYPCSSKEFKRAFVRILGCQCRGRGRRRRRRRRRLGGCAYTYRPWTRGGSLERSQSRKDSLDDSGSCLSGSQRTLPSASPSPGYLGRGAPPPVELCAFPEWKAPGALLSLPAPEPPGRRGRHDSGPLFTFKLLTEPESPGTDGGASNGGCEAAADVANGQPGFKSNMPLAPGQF
The test can be described thus: Binding affinity against Adrenogenic Alpha-1B receptor.

Test [6] has as its target Beta-1 adrenergic receptor (Homo sapiens, UniProt P08588). The test can be described thus: Binding affinity against Beta-1 adrenergic receptor.
Another test deals with D(1A) dopamine receptor (Homo sapiens, UniProt P21728). Description: Binding affinity against Dopamine D1 receptor.
In test [7] the target is Muscarinic acetylcholine receptor M3 (Homo sapiens, UniProt P20309). Description: Binding affinity against Muscarinic M3 receptor.
Test [8] deals with T5, Serotonin 3 (5-HT3) receptor (Rattus norvegicus) (UniProt P35563+Q9JJ16). The test can be described thus: Tested for % decrease in heart rate relative to pre-dose control against 2-methyl-5-HT induced bradycardia (von Bezold-Jarisch (B-J) reflex) in anesthetized rats. More on the design: scale not given: the % may be the effect or the level left. It is filed as functional.

The target of test [9] is T5, Serotonin 3 (5-HT3) receptor (Rattus norvegicus). Description: Agonist activity against 2-methyl-5-HT induced bradycardia (von Bezold-Jarisch (B-J) reflex) in anesthetized rats. It is filed as functional.
The next test addresses D(2) dopamine receptor (Homo sapiens, UniProt P14416). The test can be described thus: Binding affinity against Dopamine D2 receptor.

As a reminder, the Ki is the equilibrium dissociation constant of an inhibitor or competing ligand from its target. A word on the ED50: it is the dose that gives a 50% effect, or the effect in half of the subjects.

Chain of D(2) dopamine receptor (P14416 whole entry): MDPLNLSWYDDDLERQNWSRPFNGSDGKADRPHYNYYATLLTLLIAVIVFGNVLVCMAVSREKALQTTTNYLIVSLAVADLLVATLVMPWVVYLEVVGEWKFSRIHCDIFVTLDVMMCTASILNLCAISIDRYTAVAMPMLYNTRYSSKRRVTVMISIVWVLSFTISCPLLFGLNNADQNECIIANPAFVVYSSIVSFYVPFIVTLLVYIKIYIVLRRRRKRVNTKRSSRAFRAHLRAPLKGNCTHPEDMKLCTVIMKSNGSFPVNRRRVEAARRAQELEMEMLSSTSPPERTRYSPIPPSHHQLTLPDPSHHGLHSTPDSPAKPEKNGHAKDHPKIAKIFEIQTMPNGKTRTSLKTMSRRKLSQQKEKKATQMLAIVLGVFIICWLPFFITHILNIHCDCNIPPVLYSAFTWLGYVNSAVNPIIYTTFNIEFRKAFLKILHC
Chain of D(1A) dopamine receptor (P21728 whole entry): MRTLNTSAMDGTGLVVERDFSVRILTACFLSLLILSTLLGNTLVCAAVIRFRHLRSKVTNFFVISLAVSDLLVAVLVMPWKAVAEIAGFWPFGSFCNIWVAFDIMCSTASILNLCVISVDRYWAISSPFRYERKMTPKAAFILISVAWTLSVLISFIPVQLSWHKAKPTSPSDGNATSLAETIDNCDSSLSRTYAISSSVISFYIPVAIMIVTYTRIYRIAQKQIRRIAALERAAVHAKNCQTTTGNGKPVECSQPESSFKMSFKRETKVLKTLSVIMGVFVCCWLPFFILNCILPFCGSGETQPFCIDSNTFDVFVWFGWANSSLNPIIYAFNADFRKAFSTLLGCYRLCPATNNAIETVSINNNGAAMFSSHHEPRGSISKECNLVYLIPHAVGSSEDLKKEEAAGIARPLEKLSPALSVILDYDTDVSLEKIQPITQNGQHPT
Chain of Muscarinic acetylcholine receptor M3 (P20309 whole entry): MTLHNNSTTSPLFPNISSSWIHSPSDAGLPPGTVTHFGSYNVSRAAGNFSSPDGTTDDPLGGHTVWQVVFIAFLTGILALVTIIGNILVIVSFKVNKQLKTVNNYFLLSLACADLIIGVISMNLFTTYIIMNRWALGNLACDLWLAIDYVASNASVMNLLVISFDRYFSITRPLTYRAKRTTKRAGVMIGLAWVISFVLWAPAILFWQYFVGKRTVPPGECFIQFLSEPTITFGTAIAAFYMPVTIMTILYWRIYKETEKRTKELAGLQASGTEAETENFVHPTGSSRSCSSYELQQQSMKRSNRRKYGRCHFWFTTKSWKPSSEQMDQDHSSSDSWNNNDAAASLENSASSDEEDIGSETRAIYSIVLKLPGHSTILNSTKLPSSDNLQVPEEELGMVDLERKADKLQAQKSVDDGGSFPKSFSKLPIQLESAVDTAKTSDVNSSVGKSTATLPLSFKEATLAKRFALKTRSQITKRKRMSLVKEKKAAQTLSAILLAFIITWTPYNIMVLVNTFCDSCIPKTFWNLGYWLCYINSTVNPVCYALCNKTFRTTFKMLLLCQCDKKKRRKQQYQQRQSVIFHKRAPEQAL
Chain of 5-hydroxytryptamine receptor 2A (P28223 whole entry): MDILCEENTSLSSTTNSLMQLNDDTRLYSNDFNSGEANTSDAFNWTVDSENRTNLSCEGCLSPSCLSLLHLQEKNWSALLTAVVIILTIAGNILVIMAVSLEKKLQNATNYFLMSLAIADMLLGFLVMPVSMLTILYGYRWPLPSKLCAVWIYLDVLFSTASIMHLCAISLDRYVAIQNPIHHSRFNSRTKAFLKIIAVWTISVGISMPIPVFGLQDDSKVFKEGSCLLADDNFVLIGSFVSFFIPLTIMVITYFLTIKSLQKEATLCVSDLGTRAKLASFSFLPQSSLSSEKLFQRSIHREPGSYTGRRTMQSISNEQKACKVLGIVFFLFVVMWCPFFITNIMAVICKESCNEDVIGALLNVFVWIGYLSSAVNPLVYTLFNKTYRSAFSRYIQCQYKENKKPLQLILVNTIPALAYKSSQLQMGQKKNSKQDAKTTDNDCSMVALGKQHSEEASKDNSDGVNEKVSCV
Chain of Beta-1 adrenergic receptor (P08588 whole entry): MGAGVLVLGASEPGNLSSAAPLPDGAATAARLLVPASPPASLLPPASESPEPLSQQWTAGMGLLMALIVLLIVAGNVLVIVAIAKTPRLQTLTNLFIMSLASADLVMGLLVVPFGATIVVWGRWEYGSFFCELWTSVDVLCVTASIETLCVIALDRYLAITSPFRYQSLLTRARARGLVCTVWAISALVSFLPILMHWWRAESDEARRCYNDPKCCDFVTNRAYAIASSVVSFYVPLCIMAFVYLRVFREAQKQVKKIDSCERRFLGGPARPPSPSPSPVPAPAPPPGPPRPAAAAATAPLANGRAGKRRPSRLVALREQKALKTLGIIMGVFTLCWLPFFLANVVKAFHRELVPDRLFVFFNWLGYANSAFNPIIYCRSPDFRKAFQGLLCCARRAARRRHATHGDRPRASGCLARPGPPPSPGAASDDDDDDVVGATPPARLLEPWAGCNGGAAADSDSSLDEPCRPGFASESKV

With `Cn1cc(C(=O)C(=O)N[C@@H]2CN3CCC2CC3)c2ccccc21`, the Ki in test [1] was 25.1 µM; in [2], 0.0126 µM; in test [3], 12.6 µM; in [4], 31.6 µM; in test [5], 15.8 µM; in [6] it was above 100 µM. Also, the inhibition constant (Ki) on D(1A) dopamine receptor was above 100 µM; in [7] it was 31.6 µM; at D(2) dopamine receptor it was above 100 µM. For the same molecule, the Control in test [8] was determined as 33%. For the same molecule, the median effective dose (ED50) in test [9] came out at 8.5 µg/kg.

Take `Cn1cc(C(=O)C(=O)N[C@H]2CN3CCC2CC3)c2ccccc21`: the inhibitory constant (Ki) in test [1] was 12.6 µM; in [2], 0.000251 µM; in test [3], 15.8 µM; in test [4], 7.94 µM; in [5], above 10 µM; in test [6], above 10 µM. The Ki at D(1A) dopamine receptor is above 100 µM; in [7], 50.1 µM; on D(2) dopamine receptor, above 100 µM. Further, the Control in test [8] stood at 24%. Further, the ED50 in [9] came out at 0.6 µg/kg.
